Assay results reported in US20130190289A1, “COMPOUNDS AND METHODS FOR THE TREATMENT OR PREVENTION OF FLAVIVIRUS INFECTIONS” (priority 2010, published 2013).
Read-outs that look alike come from different tables or passages of the source.

What was measured:
[1] = [3H]Thymidine incorporation assay (cell toxicity); details: human
[2] = system: HCV replicon (genotype 1b) in Huh7 cell line ET; assay: microbe, parasite or virus in culture; assay type: cell-based, HCV genotype 1b; details: Hepatitis C virus
[3] = Huh-7, 96 h, read-out: HCV-Replicon (Luci-ET)-1b_IC50
[4] = Huh-7, read-out: HCV-Replicon-(Luci-ET) 1b_IC50

Row | SMILES | CC50 at 72 h [1] | IC50 [2, 3] | IC50 [2, 4]
1 | Cc1ccc(C(=O)N(CC(=O)N2CCOCC2)c2cc(C#CC(C)(C)C)sc2C(=O)O)cc1 [Compound 125, 5-(3,3-dimethylbut-1-ynyl)-3-[(4-methylbenzoyl)-(2-morpholino-2-oxo-ethyl)amino]thiophene-2-carboxylic acid] | > 100 µM | 0.1 to 1 µM | –
2 | C[C@@H](C(=O)N(C)CCO)N(c1cc(C#CC(C)(C)C)sc1C(=O)O)C(=O)[C@H]1CC[C@H](C)CC1 [Compound 37, 5-(3,3-Dimethylbut-1-ynyl)-3-[[(1S)-2-[2-hydroxyethyl(methyl)amino]-1-methyl-2-oxo-ethyl]-(trans-4-methylcyclohexanecarbonyl)amino]thiophene-2-carboxylic acid] | > 100 µM | – | < 0.1 µM
3 | C[C@@H](C(=O)N1CCCC(O)C1)N(c1cc(C#CC(C)(C)C)sc1C(=O)O)C(=O)[C@H]1CC[C@H](C)CC1 (stereo partly drawn) [Compound 54, 5-(3,3-Dimethylbut-1-ynyl)-3-[[(1S)-2-(3-hydroxy-1-piperidyl)-1-methyl-2-oxo-ethyl]-(trans-4-methylcyclohexanecarbonyl)amino]thiophene-2-carboxylic acid] | > 100 µM | – | < 0.1 µM
4 | C[C@@H](O)[C@@H](C(=O)N1CCOCC1)N(c1cc(C#CC(C)(C)C)sc1C(=O)O)C(=O)[C@H]1CC[C@H](C)CC1 [Compound 60, 5-(3,3-Dimethylbut-1-ynyl)-3-[[(1S,2R)-2-hydroxy-1-(morpholine-4-carbonyl)propyl]-(trans-4-methylcyclohexanecarbonyl)amino]thiophene-2-carboxylic acid] | > 100 µM | – | < 0.1 µM
5 | C[C@H](CC(=O)N1CCOCC1)N(c1cc(C#CC(C)(C)C)sc1C(=O)O)C(=O)[C@H]1CC[C@H](C)CC1 [Compound 106, 5-(3,3-Dimethylbut-1-ynyl)-3-[(trans-4-methylcyclohexanecarbonyl)-[(1R)-1-methyl-3-morpholino-3-oxo-propyl]amino]thiophene-2-carboxylic acid] | > 100 µM | – | < 0.1 µM
6 | C[C@@H](C(=O)N1CC[C@@H](O)C1)N(c1cc(C#CC(C)(C)C)sc1C(=O)O)C(=O)[C@H]1CC[C@H](C)CC1 [Compound 32, 5-(3,3-Dimethylbut-1-ynyl)-3-[[(1S)-2-[(3R)-3-hydroxypyrrolidin-1-yl]-1-methyl-2-oxo-ethyl]-(trans-4-methylcyclohexanecarbonyl)amino]thiophene-2-carboxylic acid] | > 100 µM | – | < 0.1 µM
7 | CC1CN(C(=O)[C@H](C)N(c2cc(C#CC(C)(C)C)sc2C(=O)O)C(=O)[C@H]2CC[C@H](C)CC2)CCO1 (stereo partly drawn) [Compound 49, 5-(3,3-Dimethylbut-1-ynyl)-3-[(trans-4-methylcyclohexanecarbonyl)-[(1S)-1-methyl-2-(2-methylmorpholin-4-yl)-2-oxo-ethyl]amino]thiophene-2-carboxylic acid] | > 100 µM | – | < 0.1 µM
8 | C[C@@H](CC(=O)N(C)C)N(c1cc(C#CC(C)(C)C)sc1C(=O)O)C(=O)[C@H]1CC[C@H](C)CC1 [Compound 96, 3-((trans)-N—((S)-4-(dimethylamino)-4-oxobutan-2-yl)-4-methylcyclohexanecarboxamido)-5-(3,3-dimethylbut-1-yn-1-yl)thiophene-2-carboxylic acid] | 10 to 100 µM | – | < 0.1 µM
9 | CNC(=O)CN(c1cc(C#CC(C)(C)C)sc1C(=O)O)C(=O)[C@H]1CC[C@H](C)CC1 [Compound 1, 5-(3,3-dimethylbut-1-ynyl)-3-[[2-(methylamino)-2-oxo-ethyl]-(trans-4-methylcyclohexanecarbonyl)amino]thiophene-2-carboxylic acid] | 10 to 100 µM | – | < 0.1 µM
10 | COC(C)(C)C#Cc1cc(N(CC(=O)N2CCOCC2)C(=O)[C@H]2CC[C@H](C)CC2)c(C(=O)O)s1 [Compound 129, 5-(3-methoxy-3-methyl-but-1-ynyl)-3-[(trans-4-methylcyclohexanecarbonyl)-(2-morpholino-2-oxo-ethyl)amino]thiophene-2-carboxylic acid] | > 100 µM | 0.1 to 1 µM | –
11 | CC(CC(=O)N(C)C)N(c1cc(C#CC(C)(C)C)sc1C(=O)O)C(=O)[C@H]1CC[C@H](C)CC1 (relative stereo) [Compound 99, 3-[[3-(Dimethylamino)-1-methyl-3-oxo-propyl]-(trans-4-methylcyclohexanecarbonyl)amino]-5-(3,3-dimethylbut-1-ynyl)thiophene-2-carboxylic acid] | 10 to 100 µM | – | < 0.1 µM
12 | C[C@@H](O)[C@@H](C(=O)N(C)C)N(c1cc(C#CC(C)(C)C)sc1C(=O)O)C(=O)[C@H]1CC[C@H](C)CC1 [Compound 59] | > 100 µM | – | < 0.1 µM
13 | CC[C@H](C(=O)N1CCOCC1)N(c1cc(C#CC(C)(C)C)sc1C(=O)O)C(=O)[C@H]1CC[C@H](C)CC1 [Compound 122, 5-(3,3-dimethylbut-1-ynyl)-3-[(trans-4-methylcyclohexanecarbonyl)-[(1R)-1-(morpholine-4-carbonyl)propyl]amino]thiophene-2-carboxylic acid] | > 100 µM | < 0.1 µM | –
14 | C[C@@H](C(=O)NC1CCCC1)N(c1cc(C#CC(C)(C)C)sc1C(=O)O)C(=O)[C@H]1CC[C@H](C)CC1 [Compound 18, 3-[[(1S)-2-(Cyclopentylamino)-1-methyl-2-oxo-ethyl]-(trans-4-methylcyclohexanecarbonyl)amino]-5-(3,3-dimethylbut-1-ynyl)thiophene-2-carboxylic acid] | 10 to 100 µM | – | < 0.1 µM
15 | C[C@@H](CC(=O)N1CCOCC1)N(c1cc(C#CC(C)(C)C)sc1C(=O)O)C(=O)[C@H]1CC[C@H](C)CC1 [Compound 105, 5-(3,3-Dimethylbut-1-ynyl)-3-[(trans-4-methylcyclohexanecarbonyl)-[(1S)-1-methyl-3-morpholino-3-oxo-propyl]amino]thiophene-2-carboxylic acid] | > 100 µM | – | < 0.1 µM
16 | CC1CCC(C(=O)N(CCC(=O)N2CCOCC2)c2cc(C#CC(C)(C)C)sc2C(=O)O)CC1 (stereo not drawn) [Compound 97] | > 100 µM | – | < 0.1 µM
17 | CN1CC(N(c2cc(C#CC(C)(C)C)sc2C(=O)O)C(=O)[C@H]2CC[C@H](C)CC2)CC1=O (relative stereo) [Compound 107, 5-(3,3-Dimethylbut-1-ynyl)-3-[(trans-4-methylcyclohexanecarbonyl)-(1-methyl-5-oxo-pyrrolidin-3-yl)amino]thiophene-2-carboxylic acid] | > 100 µM | – | < 0.1 µM
18 | C[C@@H](C(=O)N1CCC(O)CC1)N(c1cc(C#CC(C)(C)C)sc1C(=O)O)C(=O)[C@H]1CC[C@H](C)CC1 [Compound 20, 5-(3,3-Dimethylbut-1-ynyl)-3-[[(1S)-2-(4-hydroxy-1-piperidyl)-1-methyl-2-oxo-ethyl]-(trans-4-methylcyclohexanecarbonyl)amino]thiophene-2-carboxylic acid] | > 100 µM | – | < 0.1 µM
19 | C[C@@H](C(=O)N1CCOC(C)(C)C1)N(c1cc(C#CC(C)(C)C)sc1C(=O)O)C(=O)[C@H]1CC[C@H](C)CC1 [Compound 50, 5-(3,3-Dimethylbut-1-ynyl)-3-[[(1S)-2-(2,2-dimethylmorpholin-4-yl)-1-methyl-2-oxo-ethyl]-(trans-4-methylcyclohexanecarbonyl)amino]thiophene-2-carboxylic acid] | > 100 µM | – | < 0.1 µM
20 | CN(C)CCN1CCCC[C@H](N(c2cc(C#CC(C)(C)C)sc2C(=O)O)C(=O)[C@H]2CC[C@H](C)CC2)C1=O [Compound 145, (S)-5-(3,3-Dimethylbut-1-ynyl)-3-((trans)-4-methyl-N-(1-(2-dimethylaminoethyl)-2-oxoazepan-3-yl)cyclohexanecarboxamido)thiophene-2-carboxylic acid] | 10 to 100 µM | < 0.1 µM | –
21 | CC(CN(c1cc(C#CC(C)(C)C)sc1C(=O)O)C(=O)[C@H]1CC[C@H](C)CC1)C(=O)N1CCOCC1 (relative stereo) [Compound 104, 5-(3,3-Dimethylbut-1-ynyl)-3-[(trans-4-methylcyclohexanecarbonyl)-(2-methyl-3-morpholino-3-oxo-propyl)amino]thiophene-2-carboxylic acid] | > 100 µM | – | < 0.1 µM
